Results: patent publication US8486465B1 (priority 2007, dated 2013)

Test system: Human breast cancer MCF-7 cells
Assay: Apoptosis of MCF-7 cells by Propidium Iodide technique measured by flow cytometry
Type: cell-based
Details: NOE 0
Source text: Cell Culture. […] Levels of apoptosis (cell death) were then examined using the Propidium Iodide technique as measured by flow cytometry using a FACscan (BD Biosciences, San Jose, Calif.). Forward (FSC) and Side scatter (SSC) were used to gate the cells.
(§1) FIGS. 1A, 1C, 1E, and 1G are dot plots which show the populations of cells grown under the particular culture conditions described below, while FIGS. 1B, 1D, 1F, and 1H respectively are the corresponding frequency histograms showing the total population of apoptotic MCF-7 cancer cells for each culture.
as §1, with “2A, 2C, 2E,” for “1A, 1C, 1E,”, “2G” for “1G”, “[…]” for “1B, 1D, 1F,”, “2B, 2D, 2F and 2H” for “1H”

[1] = GSH 5 mM alone, MCF-7, 24 hours (Table 1, Example 2)
[2] = GSH 10 mM alone, MCF-7, 24 hours (Table 2, Example 3)

Compound: N[C@@H](CCC(=O)N[C@@H](CS)C(=O)NCC(=O)O)C(=O)O [GSH, Glutathione]
- % cell death [1]: 20%
- % cell death relative to control [1]: 11%
- % cell survival [1]: 80%
- % cell survival relative to Control [1]: 98%
- % cell death [2]: 10%
- % cell death relative to control [2]: 96%
- % cell survival [2]: 90%
- % cell survival relative to Control [2]: 95%
